The source of these data is patent US7772226B2, “Condensed imidazole derivatives” (Eisai R&D Management Co., Ltd., priority 2002, dated 2010).

Assay [1] relates to male C57BL/6N mice. Description: Acceptable Timing of Administration in In Vivo Test. To be noted: oral; given simultaneously with vs one hour before glucose loading (2 g/kg); improvement factor for glucose tolerance compared. Here is the method:
Acceptable Timing of Administration in In Vivo Test
The respective tests described below were carried out in combination with the in vivo test (administration before 0.5 hour) as described in Assay Example 2:
1. A test compound is administered simultaneously with glucose loading (2 g/kg) (the test compound is suspended in an aqueous solution of 0.5% methyl cellulose; the solution is combined with an equal volume of a glucose solution; and the mixture is administered orally at a dose of 10 ml/kg);
2. A test compound is administered one hour before glucose loading (2 g/kg) (the test compound suspended in an aqueous solution of 0.5% methyl cellulose is administered orally one hour before the oral administration of the glucose solution; each is given orally at a dose of 10 ml/kg).
The improvement factor for glucose tolerance is estimated in each test.

The subject of assay [2] is male Wistar rats. Description: Effect of a Test Compound on the Blood Glucose Level of Fasted Male Wistar Rats. The class given is in vivo. The following applies: oral dose of 10-30 (mg/kg), 0.5, 1 and 3 hours after administration, compared with control group treated with the medium alone. Here is the method: Purpose: Effect of a Test Compound on the Blood Glucose Level of Fasted Male Wistar Rats
Animal: male Wistar rats (purchased from Charles River Japan, Inc.)
A test compound was suspended in 0.5% methyl cellulose (MC) solution and administered orally at a dose of 5 mL/kg. The control group was treated with a 0.5% MC solution. The solution was administered orally at a dose of 5 mL/kg.
Immediately before administering a test compound or 0.5% MC solution, and 0.5, 1, and 3 hours after the administration, without anesthetic the caudal vein was lightly cut with a razor blade to let the blood out. 10 μL of blood was collected and combined with 140 μL of 0.6 M perchloric acid solution. The sample was centrifuged at 3000 g at 4° C. for 10 minutes and the resultant supernatant was assayed with the Glucose CII TEST WAKO (Wako Pure Chemical Industries).

Assay [3] concerns the target T1, Porcine kidney-derived DPP-IV (Sus scrofa, UniProt P22411).
T1 construct: Porcine kidney-derived DPP-IV was dissolved in a reaction buffer; from tissue; host or cells: porcine kidney
Briefly: DPPIV-inhibiting Activity Assay. Format: biochemical. The following applies: substrate Gly-Pro-p-nitroanilide 0.33 mM, absorbance at 405 nm. Here is the method: DPPIV-inhibiting Activity Assay
Porcine kidney-derived DPP-IV was dissolved in a reaction buffer (50 mM Tris-HCl (pH 7.4)/0.1% BSA) at a concentration of […]. After 110 μl of this solution had been combined with 15 μl of an agent, the mixture was incubated at room temperature for 20 minutes. 25 μl of 2 mM Gly-Pro-p-nitroanilide was added (to a final concentration of 0.33 mM) to the solution to initiate the enzyme reaction. The reaction time was 20 minutes. 25 μl of 1N phosphoric acid solution was added to the reaction solution to quench the reaction.

As a reminder, the IC50 is the midpoint of a concentration-inhibition curve. A low value points to greater potency.

T1 sequence (P22411 whole entry): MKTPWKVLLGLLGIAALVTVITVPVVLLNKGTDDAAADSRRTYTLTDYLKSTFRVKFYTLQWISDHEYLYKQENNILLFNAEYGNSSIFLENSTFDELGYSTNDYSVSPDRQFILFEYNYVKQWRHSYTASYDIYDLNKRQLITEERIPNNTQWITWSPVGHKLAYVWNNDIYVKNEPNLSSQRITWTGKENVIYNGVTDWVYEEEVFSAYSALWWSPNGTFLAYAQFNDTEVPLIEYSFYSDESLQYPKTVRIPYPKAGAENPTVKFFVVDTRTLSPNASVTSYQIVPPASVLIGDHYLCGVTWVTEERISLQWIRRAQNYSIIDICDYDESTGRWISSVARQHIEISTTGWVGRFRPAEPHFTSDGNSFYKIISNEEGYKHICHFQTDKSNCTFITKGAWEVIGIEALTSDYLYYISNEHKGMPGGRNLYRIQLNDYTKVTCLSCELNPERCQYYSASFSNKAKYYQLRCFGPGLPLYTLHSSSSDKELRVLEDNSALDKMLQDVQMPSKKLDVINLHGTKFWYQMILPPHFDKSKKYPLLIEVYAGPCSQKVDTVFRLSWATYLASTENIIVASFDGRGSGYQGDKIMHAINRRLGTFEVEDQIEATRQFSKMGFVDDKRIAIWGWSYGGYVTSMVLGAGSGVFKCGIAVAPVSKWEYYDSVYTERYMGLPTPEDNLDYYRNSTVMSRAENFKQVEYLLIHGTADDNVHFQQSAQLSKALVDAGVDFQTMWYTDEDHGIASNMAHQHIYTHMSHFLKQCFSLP

On to `CC#CCn1c(N2CCNCC2)nc2nc(C#N)n(C)c(=O)c21.O=C(O)C(F)(F)F` [Example 82, 7-(2-Butynyl)-2-cyano-1-methyl-8-(piperazin-1-yl)-1,7-dihydropurin-6-one trifluoroacetate], for which the “range of acceptable timing of administration” value (shortened to “range”) in assay [1] is “sufficiently wide ranges of acceptable timing of administration”. The “change in the blood glucose level” value in assay [2] was “no significant change”. Taken in the same sequence, the figures for `CC#CCn1c(N2CCNCC2)nc2cnn(C)c(=O)c21` [Example 119, 3-(2-Butynyl)-5-methyl-2-(piperazin-1-yl)-3,5-dihydroimidazo[4,5-d]pyridazin-4-one] were “sufficiently wide ranges of acceptable timing of administration” and “no significant change”.

For `CC#CCn1c(N2CCCC(N)C2)nc2cnn(C)c(=O)c21.O=C(O)C(F)(F)F` (stereo not shown) [Example 120, 2-(3-Aminopiperidin-1-yl)-3-(2-butynyl)-5-methyl-3,5-dihydroimidazo[4,5-d]pyridazin-4-one trifluoroacetate], in assay [1], the “range” value was “sufficiently wide ranges of acceptable timing of administration”. Moreover, the “change in the blood glucose level” value in assay [2] was “no significant change”. Taken in the same sequence, the figures for `CC#CCn1c(N2CCNCC2)nc2nc(Oc3ccccc3C(N)=O)n(C)c(=O)c21` [Example 122, 2-[7-(2-Butynyl)-1-methyl-6-oxo-8-(piperazin-1-yl)-6,7-dihydro-1H-purin-2-yloxy]benzamide] were “sufficiently wide ranges of acceptable timing of administration” and “no significant change”. As for `CC#CCn1c(N2CCNCC2)nc2nc(C#N)n(Cc3ccccc3C#N)c(=O)c21.Cl` [Example 229, 7-(2-Butynyl)-1-(2-cyanobenzyl)-6-oxo-8-(piperazin-1-yl)-6,7-dihydro-1H-purine-2-carbonitrile hydrochloride], the “range” value in assay [1] is recorded as “sufficiently wide ranges of acceptable timing of administration”. In assay [2], the “change in the blood glucose level” value was “no significant change”.

On to `CC#CCn1c(N2CCNCC2)nc2cnn(Cc3ccccc3C#N)c(=O)c21.O=C(O)C(F)(F)F` [Example 267, 2-[3-(2-Butynyl)-4-oxo-2-(piperazin-1-yl)-3,4-dihydroimidazo[4,5-d]pyridazin-5-ylmethyl]benzonitrile trifluoroacetate], for which the “range” value in assay [1] is “sufficiently wide ranges of acceptable timing of administration”. In addition, the “change in the blood glucose level” value in assay [2] was “no significant change”. “Methyl 2-[7-(2-butynyl)-1-methyl-6-oxo-8-(piperazin-1-yl)-6,7-dihydro-1H-purin-2-yloxy]phenylacetate trifluoroacetate [Example 4]” yielded an IC50 in assay [3] of 211 nM.
